Holding throughout (type): cell-based, human
One assay relates to JURKAT (T-ALL). The assay is described as follows: In vitro clonogenic assay. As to conditions: for %, inhibition / Mean no, of colonies: 24 hours. How it is done:
(§1) In vitro clonogenic assays were carried out to determine the cytotoxic activity of the cathepsin inhibitor I (CATI-1) (Z-Phe-Gly-NHO-Bz) against cancer cells. The cancer cell lines used in the assay were U373 (glioblastoma), BT-20 (breast cancer), SQ20B (squamous cell carcinoma), RS4;11 (pro-B ALL), ALL-1 (pre-pre-B ALL), KM-3, MOLT-3 (T-ALL), JURKAT (T-ALL), K-562 (CML), HL-60 (AML), DAUDI (NHL), RAMOS (NHL) and RAJI (NHL). Each cell line was treated under several concentrations of CATI-1 for 24 hours, washed with serum free medium and resuspended in clonogenic medium having 10% fetal bovine serum and 0.9% methylcellulose. Resuspended cells were plated in duplicate 35-mm Petri dishes at 10,000 to 20,000 cells per dish and cultured at 37° C. in a humidified 5% CO2 atmosphere for 5 to 7 days.
(§2) Images of colonies in each dish were taken by a digital camera (Princeton Instruments, Inc.) linked to a microscope (Nikon Diaphot 200). Colony numbers were determined using an inverted phase microscope and percent inhibition of colony formation determined using the formula:
(§3) % inhibition=(1−(colony number in test sample/colony number in control sample))×100.

Another assay deals with SQ20B (neck cancer). The assay is described as follows: In vitro clonogenic assay. As to conditions: 24 hours. How it is done:
as §1, §2, §3

Assay [1] has as its system all tested cell lines, solid and blood cell. Briefly: In vitro clonogenic assay, all tested cell lines. As to conditions: JURKAT, KM3, DAUDI, RAJI (BAX deficient). As for the experimental part: as §1, §2
% inhibition=(1−(colony number in test sample/colony number in control sample))×100. […]

For a further assay, the system named is K562 cells. The assay is described as follows: Flow cytometric apoptosis detection in p53 deficient cells. As to conditions: K-562, p53 deficient. How it is done: (§4) Quantitative flow cytometric apoptosis detection assays were performed on BT-20 (breast cancer), PC-3 (prostate cancer), U373 (glioblastoma), SQ20B (squamous cell carcinoma), HeLa (cervix cancer), and DU145 (prostate cancer). Just prior to the assay, one mg/ml stock solutions of MC540 (Sigma, St. Louis, Mo.) and PI (Sigma, St. Louis, Mo.) were filtered through a 0.22 μm filter and stored at 4° C. in the dark. CATI-1 treated cell lines was harvested, and 1×10^6 cells suspended and stained with 5 μg/ml MC540 and 10 μg/ml propidium iodide (PI) (Uckun et al. (1996) Science, 273: 1096-1100) at 4° C. in the dark for 24 hours. Stained cells were analyzed with a FACStar Plus flow cytometer (Becton Dickinson, San Jose, Calif.) using the 488-nm excitation from an argon laser. MC540 and PI emissions were split with a 600-nm short pass diachronic mirror; a 575-nm band pass filter was placed in front of one photomultiplier tube to measure MC540 emission, and 635-nm band pass filter was used for PI emission. In each experiment approximately 10,000 cells were analyzed by FACS and the percentage of cells at early (MC540 fluorescence only) and advanced (dual MC540 plus PI fluorescence) stages of apoptosis obtained.
(§5) Effects of CATI-1 were investigated on a lung squamous carcinoma cell line, NCI-H520 cells, and a chronic myeloid leukemia cell line, K562 cells.
On the technique in general: In flow cytometry, cells or beads pass a laser one at a time.

For a further assay, the system named is NCI-H520 cells. Described as above. How it is done:
as §4, §5

The next assay concerns BT-20 cells. Briefly: TUNEL assay (DNA cleavage). As to conditions: 50 μM and 100 μM CATI-1, FIG. 3. As for the experimental part: (§6) DNA cleavage as an indicator of apoptosis was determined using the in situ terminal deoxynucleotidyl transferase (TdT)-mediated dUTP nick-end-labeling method (TUNEL assay) of Boehringer Mannheim (Cell Death Detection Kit) as described in Zhu et al. (1999) Clin. Can. Res., 5:355-360. Briefly, CATI-1 treated cells and control cells were harvested and resuspended in phosphate-buffered saline (PBS) at a density of 5×10^6 cells/ml. Fifty μl of each cell suspension was placed into a PAP Pen (Zymed Laboratories Inc., South San Francisco, Calif.)-circled area on Superfrost/Plus slide (Fisher Scientific, Pittsburgh, Pa.) that was coated for cell adhesion. Cells were allowed to adhere to the slide for 10 minutes, washed with PBS and fixed with a 4% paraformadehyde in PBS solution for 20 minutes. After washing the slides twice with PBS, the cells were permeabilized by treatment with 100 μl of 20 mM SDS in PBS for 10 minutes. […] However, non-apoptotic cells incorporate only insignificant amounts of FITC-labeled dUTP due to the lack of exposed 3′-hydroxyl ends in intact DNA and consequently have much less green fluorescence than apoptotic cells. DNA bound PI emits strong red nuclear fluorescence from all the cells.

A further assay concerns SQ20B cells. The assay is described as follows: TUNEL assay (DNA cleavage). As to conditions: 50 μM and 100 μM CATI-1, FIG. 3. How it is done: as §6

The results in this text go back to patent publication US6605589B1, “Cathepsin inhibitors in cancer treatment” (Parker Hughes Institute, priority 2000, dated 2003).

Usually IC50 stands for the point on the concentration scale where inhibition reaches its midpoint. By EC50 is commonly meant the concentration at which the effect is half-maximal. High values mean weaker potency, low ones greater potency. On to `O=C(CNC(=O)[C@H](Cc1ccccc1)NC(=O)OCc1ccccc1)NOC(=O)c1ccccc1` [CATI-1, Z-Phe-Gly-NHO-Bz], for which the “%, inhibition” value was determined as 10.0% in the assay with JURKAT (T-ALL) (CATI-1 10 uM); 98.9% in the assay on JURKAT (T-ALL) (CATI-1 20 uM); 100% with JURKAT (T-ALL) (CATI-1 35 uM); 40% in the assay with SQ20B (neck cancer) (CATI-1 50 uM); 90% in the assay with SQ20B (neck cancer) (CATI-1 100 uM). For the same compound, the “Mean no, of colonies” value was 5110 (5260, 4960) with JURKAT (T-ALL) (CATI-1 10 uM); 64 (40, 88) with JURKAT (T-ALL) (CATI-1 20 uM); 0 (0, 0) in the assay with JURKAT (T-ALL) (CATI-1 35 uM); 1838 (1732, 1944) with SQ20B (neck cancer) (CATI-1 50 uM); 306 (280, 332) in the assay on SQ20B (neck cancer) (CATI-1 100 uM). The IC50 with JURKAT (T-ALL) (read-out: IC50 (colony formation)) is 14.5 µM. Besides, in assay [1], the “susceptibility of BAX deficient cell lines to CATI-1” value is reported as “highly susceptible”. The EC50 in the assay with K562 cells was approximately 20 µM; in the assay on NCI-H520 cells, 55 µM. Also, the “DNA fragmentation (TUNEL)” value in the assay on BT-20 cells and in the assay with SQ20B cells was “nuclear green fluorescence consistent with DNA fragmentation” each time.
